Experiments:
[1] = system: croton oil-induced ear swelling; experiment: croton oil-induced ear swelling (Example 4); assay type: in vivo, ICR-HSD mice; settings: Aspirin 100 μg, topical, 6 h
Procedure: Four groups (10 mice per group) of adult male ICR-HSD mice was given topically 25 μg/per 10 μl croton oil solutions. This irritant was applied to the inner surface of the animal's right ear, and the left ear was not treated and used as a control. One-half hour after the application of the croton oil irritant, solutions were added topically to reduce inflammation; the solutions were 1% aspirin, 2% Aloe and a solution that had both aspirin and aloe.
Six hours after the topical application of croton oil solutions, a 6 mm biopsy punch specimen was taken from each ear, weighed, and the weight differences between the two were compared to determine the amount of inflammation remaining on the right ear.

open wounds = experiment: Open wound healing assay (Example 5); assay type: in vivo, ICR mice; settings: daily subcutaneous, Saline control 60.0 ± 8.3
Procedure: Adult male ICR mice (30 g, 15 animals/group) were anesthetized with ether and shaved on both sides of the back. A sterile 6 mm Baker biopsy punch was used to induce a wound on each side of the vertebral column. Anterior-posterior wound diameter measurements were made using a vernier caliper on days 0, 4 and 7. Three treatment groups received daily subcutaneous injections of a gibberellic acid (GA3) solution at dosages of 2, 10 and 100 mg/Kg, respectively. Control mice received daily injections of saline on a 10 ml/Kg basis. Standard errors for each mean value was calculated. The student's "t" test was used to determine significant differences between treatment and control groups. An analysis of variance (ANOVA) was also calculated to determine the statistical significance of the study as a whole, and gave a Fisher ratio at 16.48 which is significant at p<0.001.

wound = experiment: Wound tensile strength assay (Example 6); assay type: in vivo,  mice; settings: 50 mg/kg (each) × 4, subcutaneous, 6 h after day 4 injection
Procedure: While tensile strength of wounds is measured in terms of the load applied per unit of cross section area, the breaking strength is the measure of force required to break a wound of tissue without regard to dimensions. While tensile strength is not a function of the incision length, breaking strength is. The measurements of force required to pull a wound apart differ chiefly in the manner in which the force is applied and the sophistication of the force measurement. In the data recorded herein and in the data collected in the making of the present invention, we used a conventional plastic syringe calibrated to measure […] of air injected into the peritoneal cavity of the mouse. […] Elastic bands are first placed on over the shoulders and hips of the animal to contain the injected air into a defined area of the body and to reduce error involving underlying tissue of the peritoneal cavity, and air is injected into the animal until the wound is disrupted at which time the volume of air is recorded. […]
Each wound was closed with a 9 mm wound clip at 0.25-inch spacings for a total of 3 clips per wound. […] Six hours after the day 4 injection, the tensile strength of wounds was measured by injecting air into the peritoneal cavity from a syringe as described above.

SMILES	Inhibition (%) of croton oil-induced ear swelling [1] [%]	decrease (%) in wound diameter (open wounds; 2 mg/kg) [%]	decrease (%) in wound diameter (open wounds; 10 mg/kg) [%]	decrease (%) in wound diameter (open wounds; 100 mg/kg) [%]	increase (%) in wound tensile strength (wound) [%]
CC(=O)Oc1ccccc1C(=O)O [Aspirin]	23.7 ± 3.1				
C=C1C[C@]23C[C@@]1(O)CC[C@H]2[C@@]12C=C[C@H](O)[C@@](C)(C(=O)O1)[C@H]2[C@@H]3C(=O)O [Gibberellin, gibberellic acid]		65.3 ± 11.3	71.6 ± 12.1	81.7 ± 7.0	36.1 ± 1.5

From patent US5487899A, “Wound healing” (Jess Clarke & Sons, Inc., priority 1994, dated 1996)
